Data published in PubChem BioAssay AID2060607 (Molecular Pharmacology Branch, DTP, NCI, 2025).

System: 876862-298-R-J1-PDC complex spheroids, viability % test/control
Assay: Anticancer human tumor 876862-298-R-J1-PDC patient-derived endometrial carcinoma cell line growth inhibition [CLK]
Details: for IC50: curve of first compound; for viability, T/C: stronger effect = lower value
Source text: A high-throughput screen of multi-cell type tumor spheroids was designed to identify active combinations of […] and targeted small molecules. Complex spheroids include a stromal component modeled by human endothelial cells (HUVEC) and fibroblasts modeled by human mesenchymal stem cells (MSCs). The concentration ranges selected for each drug and investigational agent were based upon clinically achievable concentrations if the clinical Cmax of the agent was known.
Compounds. The drugs and investigational agents: cirtuvivint (SM08502; NSC835563), CC-671 (NSC850746), vemurafenib (NSC761431), tapotoclax (NSC804041), sotorasib (NSC818433), adagrasib (NSC831453), MRTX-1133 (NSC836407), BAY2416964 (NSC825713), copanlisib (NSC816437), inavolisib (NSC800729), abemaciclib (NSC768073), osimertinib (NSC779217), entinostat (NSC756642), eltanexor (KPT-8602, NSC794443), venetoclax (NSC766270), ceralasertib (NSC777638), bortezomib (NSC756655), olaparib (NSC753686), talazoparib (NSC767125), alisertib (NSC759677), peposertib (NSC802822), gemcitabine (NSC613327), 5-fluorouracil (NSC19893), SN-38 (NSC673596), oxaliplatin (NSC266046), paclitaxel (NSC125973), and doxorubicin (NSC123127), were obtained from the National Cancer Institute (NCI) Developmental Therapeutics Program Chemical Repository. The FDA-approved anticancer drug set is available from the Developmental Therapeutics Program at https://dtp.cancer.gov/organization/dscb/obtaining/available plates.htm. […] The stock solutions were prepared in dimethyl sulfoxide (DMSO, Sigma-Aldrich, St. Louis, MO, cat. D2650), except for the platinum complexes which were prepared in saline (Quality Biological, Gaithersburg, MD, cat. 114-055-101), at 800-fold the tested concentration and stored at -70 degrees C prior to their use. All drugs and investigational agents were tested over a range starting from a high concentration at or near the clinical Cmax and decreasing in half-log increments. If the clinical Cmax for an agent had not been determined, the highest concentration tested was 10 microM.
Cell Culture. All cells were maintained in an incubator at 37 degrees C and 5% CO2 with 95% humidity. The PDC lines were cultured according to standard operating procedures established by the NCI PDMR. Briefly, all PDCs were thawed and cultured in Matrigel-coated flasks prepared with a working solution of 1X Ham's F-12 nutrient mix, without supplementation (Invitrogen, Waltham, MA, cat. 11765054), 100 U/mL penicillin-streptomycin (Invitrogen, cat. 15140122), and 2.5% Matrigel (Corning Inc., Corning, NY, cat. 354248) for the first three passages. The 947758-054-R-J2-PDC line was cultured in 6B/Colon 1A media, which includes advanced DMEM/F-12 (Thermo Fisher Scientific, cat. 12634028), 10 mM HEPES (Thermo Fisher Scientific, cat. 15630080), 1X GlutaMAX supplement (Thermo Fisher Scientific, cat. 35050061), 0.1 mg/mL primocin (InvivoGen, cat. ant-pm-2), 10% defined fetal bovine serum, heat inactivated (HyClone Laboratories Inc., cat. SH30070.03HI), 1.25 mM N-Acetyl-L-cysteine (Sigma-Aldrich, cat. A9165), 10 mM nicotinamide (Sigma-Aldrich, cat. N0636), 1X B-27 supplement (Thermo Fisher Scientific, cat. 17504044), 1X N-2 supplement (Thermo Fisher Scientific, cat. 17502048), and 10 microM Y-27632 dihydrochloride (Tocris Bioscience, cat. 1254). The 876862-298-R-J1-PDC was cultured in 6E media, which includes all 6B/Colon 1A media components plus 50% L-WRN conditioned media (ATCC, cat. CRL-3276), 50 ng/mL recombinant human EGF recombinant protein (hEGF; Thermo Fisher Scientific, cat. PHG0311), 10 ng/mL recombinant human fibroblast growth factor 10 (hGFG-10; PeproTech, cat. 100-26), 1 ng/mL recombinant human fibroblast growth factor 2 (hFGF-2; PeproTech, cat. 100-18B), and 1 µM prostaglandin E2 (PGE2; Tocris, cat. 2296). The 227483-062-R1-J1-PDC line was cultured in Panc media, containing all 6E components except hFGF-2, with the addition of 500 nM SB-431542 (Selleckchem, cat. S1067) and 10 nM gastrin (Tocris, cat. 3006). […]

[1] = second compound 0.0316 µM, first compound 0.0316 µM
[2] = second compound 0.0316 µM, first compound 0.1 µM
[3] = second compound 0.0316 µM, first compound 0.316 µM
[4] = second compound 0.0316 µM, first compound 1 µM
[5] = second compound 0.0316 µM, first compound 3.16 µM
[6] = second compound 0.0316 µM, first compound 10 µM
[7] = second compound 0.1 µM, first compound 0.0316 µM
[8] = second compound 0.1 µM, first compound 0.1 µM
[9] = second compound 0.1 µM, first compound 0.316 µM
[10] = second compound 0.1 µM, first compound 1 µM
[11] = second compound 0.1 µM, first compound 3.16 µM
[12] = second compound 0.1 µM, first compound 10 µM
[13] = second compound 0.316 µM, first compound 0.0316 µM
[14] = second compound 0.316 µM, first compound 0.1 µM
[15] = second compound 0.316 µM, first compound 0.316 µM
[16] = second compound 0.316 µM, first compound 1 µM
[17] = second compound 0.316 µM, first compound 3.16 µM
[18] = second compound 0.316 µM, first compound 10 µM
[19] = second compound 1 µM, first compound 0.0316 µM
[20] = second compound 1 µM, first compound 0.1 µM
[21] = second compound 1 µM, first compound 0.316 µM
[22] = second compound 1 µM, first compound 1 µM
[23] = second compound 1 µM, first compound 3.16 µM
[24] = second compound 1 µM, first compound 10 µM
[25] = second compound 3.16 µM, first compound 0.0316 µM
[26] = second compound 3.16 µM, first compound 0.1 µM
[27] = second compound 3.16 µM, first compound 0.316 µM
[28] = second compound 3.16 µM, first compound 1 µM
[29] = second compound 3.16 µM, first compound 3.16 µM
[30] = second compound 3.16 µM, first compound 10 µM
[31] = second compound 10 µM, first compound 0.0316 µM
[32] = second compound 10 µM, first compound 0.1 µM
[33] = second compound 10 µM, first compound 0.316 µM
[34] = second compound 10 µM, first compound 1 µM
[35] = second compound 10 µM, first compound 3.16 µM
[36] = second compound 10 µM, first compound 10 µM
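Also: spheroids exposed to drugs for 7 days before readout.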
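For viability, T/C in this document: 100% = DMSO vehicle control wells.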

## CCCS(=O)(=O)Nc1ccc(F)c(C(=O)c2c[nH]c3ncc(-c4ccc(Cl)cc4)cc23)c1F + CN1CCN(c2cc(C(=O)Nc3cc4cc(-c5cnn(C)c5)ccc4cn3)ccn2)CC1
Second compound 0.0316 µM
  IC50: 6760 nM
Second compound 0.1 µM
  IC50: 974 nM
Second compound 0.316 µM
  IC50: < 31.6 nM
Second compound 1 µM
  IC50: < 31.6 nM
Second compound 3.16 µM
  IC50: < 31.6 nM
Second compound 10 µM
  IC50: < 31.6 nM
[1]
  viability, T/C: 103%
[2]
  viability, T/C: 93.4%
[3]
  viability, T/C: 89.2%
[4]
  viability, T/C: 101%
[5]
  viability, T/C: 77.1%
[6]
  viability, T/C: 36.1%
[7]
  viability, T/C: 63.4%
[8]
  viability, T/C: 51.6%
[9]
  viability, T/C: 53.1%
[10]
  viability, T/C: 50.7%
[11]
  viability, T/C: 42.2%
[12]
  viability, T/C: 22.5%
[13]
  viability, T/C: 4.72%
[14]
  viability, T/C: 3.82%
[15]
  viability, T/C: 5.6%
[16]
  viability, T/C: 5.09%
[17]
  viability, T/C: 5.93%
[18]
  viability, T/C: 3.83%
[19]
  viability, T/C: 0.82%
[20]
  viability, T/C: 1.88%
[21]
  viability, T/C: 1.54%
[22]
  viability, T/C: 2.17%
[23]
  viability, T/C: 3.28%
[24]
  viability, T/C: 1.25%
[25]
  viability, T/C: 1.32%
[26]
  viability, T/C: 2.22%
[27]
  viability, T/C: 9.57%
[28]
  viability, T/C: 1.58%
[29]
  viability, T/C: 2.88%
[30]
  viability, T/C: 2.88%
[31]
  viability, T/C: 1.06%
[32]
  viability, T/C: 1.12%
[33]
  viability, T/C: 1.23%
[34]
  viability, T/C: 10.9%
[35]
  viability, T/C: 7.9%
[36]
  viability, T/C: 2.22%

## COC1C=CCC(C)C(C)S(=O)(=O)NC(=O)c2ccc3c(c2)N(CC2CCC21)CC1(CCCc2cc(Cl)ccc21)CO3 (centres undefined) + CN1CCN(c2cc(C(=O)Nc3cc4cc(-c5cnn(C)c5)ccc4cn3)ccn2)CC1
Second compound 0.0316 µM
  IC50: 7390 nM
Second compound 0.1 µM
  IC50: 212 nM
Second compound 0.316 µM
  IC50: < 31.6 nM
Second compound 1 µM
  IC50: < 31.6 nM
Second compound 3.16 µM
  IC50: < 31.6 nM
Second compound 10 µM
  IC50: < 31.6 nM
[1]
  viability, T/C: 93.9%
[2]
  viability, T/C: 96.6%
[3]
  viability, T/C: 97.6%
[4]
  viability, T/C: 96.3%
[5]
  viability, T/C: 96.7%
[6]
  viability, T/C: 33.5%
[7]
  viability, T/C: 56.9%
[8]
  viability, T/C: 51.1%
[9]
  viability, T/C: 47.6%
[10]
  viability, T/C: 39%
[11]
  viability, T/C: 38.6%
[12]
  viability, T/C: 18.8%
[13]
  viability, T/C: 4.28%
[14]
  viability, T/C: 3.17%
[15]
  viability, T/C: 2.26%
[16]
  viability, T/C: 1.91%
[17]
  viability, T/C: 1.34%
[18]
  viability, T/C: 0.56%
[19]
  viability, T/C: 0.93%
[20]
  viability, T/C: 0.64%
[21]
  viability, T/C: 25.5%
[22]
  viability, T/C: 0.78%
[23]
  viability, T/C: 25.2%
[24]
  viability, T/C: 2.2%
[25]
  viability, T/C: 1.34%
[26]
  viability, T/C: 1.14%
[27]
  viability, T/C: 1.59%
[28]
  viability, T/C: 1.26%
[29]
  viability, T/C: 1.14%
[30]
  viability, T/C: 0.26%
[31]
  viability, T/C: 1.69%
[32]
  viability, T/C: 1.52%
[33]
  viability, T/C: 2.33%
[34]
  viability, T/C: 26.3%
[35]
  viability, T/C: 1.84%
[36]
  viability, T/C: 1.78%
